The experiment has as its target T1, AM2 receptor (CALCRL+RAMP3) (Homo sapiens, UniProt O60896+Q16602).
T1 construct: host or cells: 1321N1
The experiment can be described thus: AM2 receptor inhibition, LANCE TR-FRET cAMP agonist-antagonist competition assay. The format is cell-based. Conditions: inhibition of AM induced cAMP activation; 1321N1 cells transfected with CALCRL+RAMP3; read-out: AM2 pIC50 (converted). Here is the method: Compounds were assessed for their ability to inhibit ligand-induced elevations of cAMP, using the Perkin Elmer LANCE cAMP assay using commercially-available cells expressing a specific receptor of interest using the following general procedure:
Compounds were prepared in dimethyl sulfoxide (DMSO—99.9% pure) (Sigma Aldrich, Cat #: D4540) added to powder stocks to produce a 20 mM solution (100% DMSO) that was sonicated at 37° C. for 10 minutes to fully dissolve the compounds. The 20 mM stocks were diluted further in DMSO to produce a 2 mM solution that was sonicated at 37° C. for 10 minutes. 2 mM stocks were dissolved in assay/stimulation buffer to produce a 400 μM solution that was sonicated at 37° C. for 10 minutes for all cAMP assays. All stocks were stored at −20° C. Then serial dilution (Dilution factor 10) was performed to achieve the desire experimental concentrations.
Competition assays were performed according to the manufactures instructions using LANCE® TR-FRET cAMP assay kit (Perkin Elmer, Cat #: AD0264). Serial dilutions (3 μl/well) of the molecules were plated in a 384-well OptiPlate (Perkin Elmer, Cat #: 6007299) in duplicates. Appropriate controls (100% stimulation: Forskolin and 0% stimulation: Vehicle control) (6 μl/well) were included in each plate for data normalization. Following the compound addition, 6 μl of G-protein coupled receptor overexpressing cells/Alexa Fluor antibody solution (1:100 dilution) was added in each well at a desired density of 2500 cells/well. The overexpressing cell lines were purchased from DiscoveRx, Birmingham, UK. After spinning the plate at 1000 rpm for 1 minute and vortexing briefly, the cells were pre-incubated with the compounds for 30 minutes at room temperature (covered). Then 3 μl of the equivalent peptide ligand (EC50 dose) was added to all the wells except vehicle and forskolin controls. The plate were then spun down at 1000 rpm for 1 minute and once finished they were vortexed briefly and covered. Cells were stimulated in the presence of the ligands for 15 minutes at room temperature. After stimulation 12 μl of detection mix (Europium-Chelate streptavidin/biotinylated cAMP tracer solution) was added to all wells and incubated for 60 minutes at room temperature. The plate was then read on the Enspire multimode Plate reader (Perkin Elmer), at; 320/340 nm excitation and 615/665 nm emission was recorded.
• 28 mL Hank's Balanced salt solution (+MgCl2, +CaCl2)—(Thermo Fisher Cat #:14170112) • 150 μl HEPES (1M)—(Thermo Fisher Cat #:15630080) • 400 μl Stabilizer (DTPA) Purified BSA (7.5%)—(Perkin Elmer, Cat #: CR84-100) • 60 μl IBMX (250 mM)—(Sigma Aldrich, Cat #: 15879) Specific cAMP/Agonist-Antagonist Competition Assays
The ability of a compound to inhibit the AM induced cAMP activation in AM2 receptor-expressing cells (1321N1 cells transfected with CALCRL+RAMP3, sourced from DiscoverX catalogue number 95-0169C6) was assessed using the protocol above.

T1 sequence (Q16602 23-461): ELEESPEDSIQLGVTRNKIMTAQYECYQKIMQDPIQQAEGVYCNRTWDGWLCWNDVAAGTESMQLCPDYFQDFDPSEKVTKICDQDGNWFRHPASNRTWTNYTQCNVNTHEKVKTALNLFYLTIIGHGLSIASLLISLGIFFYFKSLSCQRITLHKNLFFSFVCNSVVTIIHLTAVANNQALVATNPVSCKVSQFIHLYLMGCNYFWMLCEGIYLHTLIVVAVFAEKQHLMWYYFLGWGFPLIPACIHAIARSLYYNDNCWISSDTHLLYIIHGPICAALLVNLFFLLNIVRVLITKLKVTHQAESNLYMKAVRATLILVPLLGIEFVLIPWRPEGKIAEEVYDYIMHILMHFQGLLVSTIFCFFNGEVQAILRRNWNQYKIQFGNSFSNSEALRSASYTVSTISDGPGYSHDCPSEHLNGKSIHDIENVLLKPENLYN
T1 sequence (O60896 24-148): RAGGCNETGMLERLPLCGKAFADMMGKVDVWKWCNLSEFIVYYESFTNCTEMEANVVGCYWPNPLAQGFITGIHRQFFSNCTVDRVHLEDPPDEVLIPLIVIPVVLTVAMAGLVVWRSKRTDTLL

`CC(C)(C)C(=O)N(CC(=O)Nc1ccc2c(c1)CC1(C2)C(=O)Nc2ncccc21)Cc1ccccc1CNCC(F)F` (stereo not shown) [Example 3, N-(2-(((2,2-Difluoroethyl)amino)methyl)benzyl)-N-(2-oxo-2-((2′-oxo-1,1′,2′,3-tetrahydrospiro[indene-2,3′-pyrrolo[2,3-b]pyridine]-5-yl)amino)ethyl)pivalamide]: the IC50 was 324 nM.

On to `CC(C)(C)C(=O)N(CC(=O)Nc1ccc2c(c1)CC1(C2)C(=O)Nc2ncccc21)Cc1ccccc1CN1CCCC1` (stereo not shown) [Example 4, N-(2-Oxo-2-((2′-oxo-1,1′,2′,3-tetrahydrospiro[indene-2,3′-pyrrolo[2,3-b]pyridine]-5-yl)amino)ethyl)-N-(2-(pyrrolidin-1-ylmethyl)benzyl)pivalamide], for which the IC50 is 60.3 nM.

For `CC(C)(C)C(=O)N(CC(=O)Nc1ccc2c(c1)CC1(C2)C(=O)Nc2ncccc21)Cc1ccccc1CNCC(F)(F)F` (stereo not shown) [Example 6, N-(2-Oxo-2-((2′-oxo-1,1′,2′,3-tetrahydrospiro[indene-2,3′-pyrrolo[2,3-b]pyridine]-5-yl)amino)ethyl)-N-(2-(((2,2,2-trifluoroethyl)amino)methyl)benzyl)pivalamide], the IC50 is 513 nM.

In the case of `CN(C)CCNCc1ccccc1CN(CC(=O)Nc1ccc2c(c1)CC1(C2)C(=O)Nc2ncccc21)C(=O)C(C)(C)C` (stereo not shown) [Example 7, N-(2-(((2-(Dimethylamino)ethyl)amino)methyl)benzyl)-N-(2-oxo-2-((2′-oxo-1,1′,2′,3-tetrahydrospiro[indene-2,3′-pyrrolo[2,3-b]pyridine]-5-yl)amino)ethyl)pivalamide], the IC50 is 126 nM.

As for `CC(C)(C)C(=O)N(CC(=O)Nc1ccc2c(c1)CC1(C2)C(=O)Nc2ncccc21)Cc1ccccc1CNCC1CC1` (stereo not shown) [Example 8, N-(2-(((Cyclopropylmethyl)amino)methyl)benzyl)-N-(2-oxo-2-((2′-oxo-1,1′,2′,3-tetrahydrospiro[indene-2,3′-pyrrolo[2,3-b]pyridine]-5-yl)amino)ethyl)pivalamide], the IC50 was 166 nM.

Take `CC(C)(C)C(=O)N(CC(=O)Nc1ccc2c(c1)CC1(C2)C(=O)Nc2ncccc21)Cc1ccccc1CNCc1ncc[nH]1` (stereo not shown) [Example 9, N-(2-((((1H-Imidazol-2-yl)methyl)amino)methyl)benzyl)-N-(2-oxo-2-((2′-oxo-1,1′,2′,3-tetrahydrospiro[indene-2,3′-pyrrolo[2,3-b]pyridine]-5-yl)amino)ethyl)pivalamide]: the IC50 is 240 nM.

In the case of `CC(C)(C)C(=O)N(CC(=O)Nc1ccc2c(c1)CC1(C2)C(=O)Nc2ncccc21)Cc1ccccc1CN1CC(F)C1` (stereo not shown) [Example 10, N-(2-((3-Fluoroazetidin-1-yl)methyl)benzyl)-N-(2-oxo-2-((2′-oxo-1,1′,2′,3-tetrahydrospiro[indene-2,3′-pyrrolo[2,3-b]pyridin]-5-yl)amino)ethyl)pivalamide], the IC50 is 91.2 nM.

For the molecule `CC(C)(C)C(=O)N(CC(=O)Nc1ccc2c(c1)CC1(C2)C(=O)Nc2ncccc21)Cc1ccccc1CN1CC(F)(F)C1` (stereo not shown) [Example 11, N-(2-((3,3-Difluoroazetidin-1-yl)methyl)benzyl)-N-(2-oxo-2-((2′-oxo-1,1′,2′,3-tetrahydrospiro[indene-2,3′-pyrrolo[2,3-b]pyridin]-5-yl)amino)ethyl)pivalamide], the IC50 is 398 nM.

Turning to `CN(C)CCCNCc1ccccc1CN(CC(=O)Nc1ccc2c(c1)CC1(C2)C(=O)Nc2ncccc21)C(=O)C(C)(C)C` (stereo not shown) [Example 12, N-(2-(((3-(Dimethylamino)propyl)amino)methyl)benzyl)-N-(2-oxo-2-((2′-oxo-1,1′,2′,3-tetrahydrospiro[indene-2,3′-pyrrolo[2,3-b]pyridin]-5-yl)amino)ethyl)pivalamide], the IC50 is 186 nM.

Consider `CC(C)(C)C(=O)N(CC(=O)Nc1ccc2c(c1)CC1(C2)C(=O)Nc2ncccc21)Cc1ccccc1CNCCO` (stereo not shown) [Example 13, N-(2-(((2-Hydroxyethyl)amino)methyl)benzyl)-N-(2-oxo-2-((2′-oxo-1,1′,2′,3-tetrahydrospiro[indene-2,3′-pyrrolo[2,3-b]pyridin]-5-yl)amino)ethyl)pivalamide], for which the IC50 is 33.1 nM.
